What was measured:
Format in all cases: cell-based, human
[1] = MTT assay, cell viability of L-02 cells; conditions: human, L-02 (L02) normal hepatic cells, L-02, MTT, 24 h, read-out: cells viabilityrate
Procedure: (§1) The normal hepatic cell (L02) cell lines were obtained from the National Infrastructure of Cell Line Resources (Chinese Academy of Medical Sciences, Beijing, China), and maintained in Dulbecco’s modified Eagle’s medium (DMEM, 10-013-CVR) supplemented with 10% fetal bovine serum (FBS, Hyclone), 1% penicillin and streptomycin (PS, 100 IU/ml penicillin, 100 μg/ml streptomycin, Mediatech, 30-002-CI). All cells were incubated in a humidified atmosphere at 37°C with 5% CO2.
(§2) L-02 cells were trypsinized by 0.25% trypsin after reaching the confluence of 70–80% and plated in 96-well plates at the density of 1.6 × 10^3 […]. And L-02 cells were cultured for 24 hours in vitro before exposure to varying concentrations of different representative compounds with liver injury for further incubating in another 24 hours. Then, 20 μl of 0.25 mg/ml3-(4,5-dimethylthiazol-2-yl)-2,5-diphenyltetrazolium bromide (MTT)-tetrazolium salts (Sigma-Aldrich Corp., St. Louis, MO, USA) in PBS was added to each hole in 96-well plates. After 4 hours of incubation, the formazan crystals were dissolved by 150μl Dimethyl Sulphoxide (DMSO), and shocked to dissolve thoroughly, then the cell viability was measured by MTT method at 570 nm. All experiments were repeated in triplicate independently.

L-02 cells [2] = experiment: MTT assay, cell viability of L-02 cells; conditions: dose of 60–90 μmol/L
Procedure: as §1, §2

p38α = experiment: Western blot, expression of p-p38α/p38α in L-02 cells, without and with inhibitor SB203580
Source text: After the examination of biochemical indicators for hepatotoxicity in the cell, the expression of crucial liver injury protein in L02 cell lines among different groups was compared by Western blot analysis. Briefly, the proteins from different groups were harvested and lysed using lysis buffer (Sigma-Aldrich) containing a proteinase inhibitor cocktail (Sigma-Aldrich), the equal amounts of protein were separated by electrophoresis on a pre-cast 10% SDS-polyacrylamide gel (Bio-Rad, Hercules, CA) and transferred to polyvinylidene difluoride membranes (Millipore, Bedford, MA). Next, the membrane was blocked in TBST-T containing 5% skim milk for 2 h at room temperature and probed with anti-beta-catenin, and incubated overnight with the indicated primary antibody, followed by incubation with the secondary antibodies at room temperature for another 2 h. Finally, all the immune blots were visualized by enhanced chemiluminescence (Pierce Biotechnology, Inc., Rockford, IL, USA) and western blots were performed at least three times.
According to the results of network pharmacology, we examined the expression levels of p38α. […] The Specific specific composition information is was shown in S3 Table. […] However, the mechanism of saikosaponin D causing liver injury still remained unclear.
To further and fully elucidating the mechanism of the liver injury caused by the representative compounds from urate-lowering Chinese herbs, we chose the p38α inhibitor, SB203580 to verify our findings. Seemingly, the ALT, AST, ALP, and LDH activities of each group decreased to varying degrees under the influence of inhibitor. The specific composition information was shown in S2 Table. […] The Specific specific composition information is was shown in S4 Table.

L-02 cells [3] = experiment: Biochemical indicators of hepatotoxicity (ALT, AST, LDH, ALP activity) of L-02 cells, without and with p38 inhibitor SB203580
Procedure: as §1
To determine how potential liver injury-compounds affected biochemical indicators of L-02 cells, we investigated the activities of AST, ALT, LDH and ALP in cell migration capacity under the different representative compounds conditions (representative compounds group), the inhibitor conditions (inhibitor group), and the negative control. For these experiments, three replicates were made for each concentration of the different representative compounds with liver injury, and each group was established three holes and cultured in 6 times repeatedly. […] Subsequently, the supernatant extraction of L02 cells was collected and centrifuged to detect the activities of AST, ALT, LDH, and ALP by chromatometry method.
To further and fully elucidating the mechanism of the liver injury caused by the representative compounds from urate-lowering Chinese herbs, we chose the p38α inhibitor, SB203580 to verify our findings. […] The specific composition information was shown in S2 Table. […] The Specific specific composition information is was shown in S4 Table.

[4] = Table 5, L-02 supernatant, 24 h, 40μmol/L
[5] = Table 5, L-02 supernatant, 24 h, 60μmol/L
[6] = Table 5, L-02 supernatant, 24 h, 80μmol/L

`COc1ccc2cc1Oc1ccc(cc1)C[C@H]1c3cc(c(OC)cc3CCN1C)Oc1c(OC)c(OC)cc3c1[C@H](C2)N(C)CC3` [Tetrandrine] gave a viability at 24 h, 40 μmol/L ([1]; 40 μmol/L) of 101 ± 9.72%, a viability at 24 h, 60 μmol/L ([1]; 60 μmol/L) of 91.8 ± 4.63% and a viability at 24 h, 80 μmol/L ([1]; 80 μmol/L) of 83.3 ± 5.22%. The “cell survival rate, in words” value (L-02 cells [2]) was “lower cell survival rate”, the p-p38α/p38α (p38α; S3 Table, L-02, 24 hours of incubation, 40μmol/L) was 1.03±0.29 and the p-p38α/p38α (p38α; S3 Table, L-02, 24 hours of incubation, 60μmol/L) was 0.98±0.14. The p-p38α/p38α (p38α; S3 Table, L-02, 24 hours of incubation, 80μmol/L) was 1.26±0.52, the p-p38α/p38α (p38α; S4 Table, L-02, 24 hours, 40μmol/L+inhibitor (SB203580)) was 0.81±0.03 and the p-p38α/p38α (p38α; S4 Table, L-02, 24 hours, 40μmol/L, no inhibitor) was 0.97±0.03. It also gave a p-p38α/p38α (p38α; S4 Table, L-02, 24 hours, 60μmol/L+inhibitor (SB203580)) of 0.98±0.17, a p-p38α/p38α (p38α; S4 Table, L-02, 24 hours, 60μmol/L, no inhibitor) of 0.79±0.24 and a p-p38α/p38α (p38α; S4 Table, L-02, 24 hours, 80μmol/L+inhibitor (SB203580)) of 1.28±0.26. The p-p38α/p38α (p38α; S4 Table, L-02, 24 hours, 80μmol/L, no inhibitor) was 1.17±0.07, the ALT (L-02 cells [3]; S2 Table, L-02, 40μmol/L, no inhibitor) was 16.55± 0.71 U/L and the AST (L-02 cells [3]; S2 Table, L-02, 60μmol/L, no inhibitor) was 5.64± 0.56 U/L. The ALP (L-02 cells [3]; [4]) was 16.55±0.71 ^*^Δ King's unit /100ml, the ALT (L-02 cells [3]; [4]) was 4.36±0.35 U/L and the AST (L-02 cells [3]; [4]) was 713.48±49.44 ^*^Δ U/L. The LDH (L-02 cells [3]; [4]) was 0.79±0.08 U/L, the ALT (L-02 cells [3]; [5]) was 5.01±1.20 U/L and the AST (L-02 cells [3]; [5]) was 705.81±98.97^Δ U/L. For the same molecule, the LDH (L-02 cells [3]; [5]) was 0.82±0.16 U/L, the ALP (L-02 cells [3]; [6]) was 17.45±0.35 ^**^ΔΔ King's unit /100ml and the ALT (L-02 cells [3]; [6]) was 4.84±0.86 U/L. For the same molecule, the AST (L-02 cells [3]; [6]) was 736.08±77.41 ^*^Δ U/L and the LDH (L-02 cells [3]; [6]) was 0.93±0.07 U/L.

Source: article PMC6541264, “Molecular mechanisms involved in drug-induced liver injury caused by urate-lowering Chinese herbs: A network pharmacology study and biology experiments” (PLoS ONE, 2019)
